What all share (format): in vivo
Conditions in all cases: two pigs

In series [1] the test system is pigs. In words: Electroperforation (9 pores/cm^2) followed by passive diffusion and iontophoresis of insulin for transdermal delivery, blood glucose monitoring. The method, then:
(§1) To evaluate the pore transport pathway created through the stratum corneum of the skin by electroperforation, an in vivo experiment was conducted on the back skin of Yorkshire pigs (female, ˜12 kg) using an electrosurgery apparatus (Surgitron™, Ellman International, Inc., Hewlett, N.Y.). The pigs were immobilized with appropriate anesthetics and analgesics. Electrofulguration current was used with a fine wire electrode (0.26 mm in diameter) and power output setting at between scale 3 to 10. A small pore was created on the surface of the skin by carefully moving the electrode towards the skin until the tip of the electrode almost touched the skin. The electrode was quickly moved away from the skin as soon as an electric arc appeared in the gap between the electrode tip and the skin surface.
An electroperforation procedure was conducted in two pigs similar with a pore density of 9 pores/cm^2 on the skin and subsequently was followed by transdermal insulin delivery. The purpose of using a lower pore density in this experiment was to examine the effect of pore number (e.g., the extent of the transport pathway available) to transdermal insulin delivery. The same insulin-containing chamber and drug application procedures were used in this experiment as those in the Example 2. […]

Series [2] has as its system pigs. In words: Electroperforation (39 pores/cm^2) followed by passive diffusion of insulin for transdermal delivery, blood glucose monitoring. The method, then: as §1
The electroperforation procedure described in Example 1 was conducted in two pigs with a pore density of 39 pores/cm^2 of the skin and subsequently followed by transdermal insulin delivery with passive diffusion. An insulin-containing chamber was immediately placed onto the electroperforation-treated skin. […] Blood glucose of the pigs was monitored by obtaining blood samples of the ear vein, which were analyzed using two blood glucose analyzers separately to assure the accuracy (One Touch® Basic, LifeScan, Inc., Milpitas, Calif.).

The nature of series [3]: Electroperforation (25 pores/cm^2) followed by passive diffusion of erythropoietin for transdermal delivery, plasma erythropoietin by ELISA. The method, then: as §1
An electroperforation procedure was conducted in two pigs similar to that in Example 3, followed by passive diffusion of erythropoietin (20 kU/ml, Procrit®, Ortho Biotech, Inc., Raritan, N.J.) at the treatment site. There were 25 pores/cm^2 generated with electroperforation on each pig. The drug chamber based over the electroperforation-treated skin area contained 0.5 ml of erythropoietin solution. Blood samples were collected for erythropoietin analysis with an ELISA method. The erythropoietin delivery procedure was carried out for 7 hours. […]

As to insulin, the blood glucose reduction result in series [1] (during iontophoresis, 4 mA DC, two 30-minute sections at 1.5 hour and 3 hour) is listed as “rapid blood glucose reduction”; in series [2] (0.5 ml insulin solution 100 U/ml, contact area 2.3 cm^2) it was “greater than 50 % of the basal level”. Besides, the blood glucose levels entry in series [1] (first 1.5 hours, passive diffusion only) is listed as “did not decline”; in series [2] (from the onset of insulin delivery), “declined rather quickly”.

In the case of erythropoietin, the plasma erythropoietin concentrations entry in series [3] (one day after the delivery experiment) is listed as “still above the endogenous basal level”. Moreover, the plasma erythropoietin concentration entry in series [3] (passive diffusion, 0.5 ml of 20 kU/ml solution, during the 7 hour delivery until chambers removed) was “progressive increase”.

The record behind these values is patent US7133717B2, “Tissue electroperforation for enhanced drug delivery and diagnostic sampling” (Johnson & Johnson Consumer Companies, Inc., priority 1999, dated 2006).
